Patent publication US8293746B2, “Pyrimidinyl aryl urea derivatives being FGF inhibitors” (Novartis AG, priority 2005, dated 2012)

SMILES: CCN1CCN(c2ccc(Nc3cc(N(C)C(=O)Nc4cc(OC)c(Cl)c(C(F)(F)F)c4Cl)ncn3)cc2)CC1 [Example 25, 3-(2,4-Dichloro-5-methoxy-3-trifluoromethyl-phenyl)-1-{6-[4-(4-ethyl-piperazin-1-yl)-phenylamino]-pyrimidin-4-yl}-1-methyl-urea]
- melting point: 143 to 144 °C
